Assay results reported in patent US6518243B1, “Desleucyl glycopeptide antibiotics and methods of making same” (Trustees of Princeton University, priority 1999, dated 2003).

Tests used:
E. faecalis ATCC 29212 = assay: MIC determination in BHI media, OD600; type: cell-based; settings: BHI + 0.1% casamino acids, 18 hours at 37° C., ≧90% OD600 inhibition
In short: (§1)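 Log-phase bacteria were diluted to about 5×10^5 CFU/ml and exposed to test compounds serially diluted in DMSO. Following 18 hours at 37° C, growth was read by plate absorbance to assign the MIC.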

S aureus ATCC 29213 = assay: MIC determination in BHI media, OD600; type: cell-based; settings: BHI + 0.1% casamino acids, 18 hours at 37° C., ≧90% OD600 inhibition
In short: as §1

S. Aureus ATCC 33591 = assay: MIC determination in BHI media, OD600; type: cell-based; settings: BHI + 0.1% casamino acids, 18 hours at 37° C., ≧90% OD600 inhibition
In short: as §1

E. faecium ATCC 49624 = assay: MIC determination in BHI media, OD600; type: cell-based; settings: BHI + 0.1% casamino acids, 18 hours at 37° C., ≧90% OD600 inhibition
In short: as §1

E. faceium (ATCC 49624) = assay: Zone of inhibition screen, 96 well agar array format;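 note: score 3 means fourfold and score 4 sixteenfold the reference zone size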; type: cell-based, E. faecium; settings: zone of inhibition relative to 1 mg/ml stock solution of p-chlorobiphenylvancomycin
In short: (§2)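 Each compound was tested for antibacterial activity against a shared bacterial panel, with screening carried out on agar in a 96-well array.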

E. Faecalis CL 4877 = assay: MIC determination in BHI media, OD600; type: cell-based; settings: BHI + 0.1% casamino acids, 18 hours at 37° C., ≧90% OD600 inhibition
In short: as §1

E. faecium CL 4931 = assay: MIC determination in BHI media, OD600; type: cell-based; settings: BHI + 0.1% casamino acids, 18 hours at 37° C., ≧90% OD600 inhibition
In short: as §1

E. faecalis (CL 4877) = assay: Zone of inhibition screen, 96 well agar array format; type: cell-based; parameters: scale not given here; settings: zone of inhibition relative to 1 mg/ml stock solution of p-chlorobiphenylvancomycin
In short: as §2

[1] = system: S. epidermidis (ATCC 12228); assay: as above; type: cell-based; parameters: scale not given here; settings: zone of inhibition relative to 1 mg/ml stock solution of p-chlorobiphenylvancomycin
In short: as §2

S. aureus (ATCC 29213) = assay: as above; type: cell-based; parameters: scale not given here; settings: zone of inhibition relative to 1 mg/ml stock solution of p-chlorobiphenylvancomycin
In short: as §2

SMILES | MIC E. faecalis ATCC 29212 (E. faecalis ATCC 29212) [µg/mL] | MIC S. aureus ATCC 29213 (S aureus ATCC 29213) [µg/mL] | MIC S. aureus ATCC 33591 (S. Aureus ATCC 33591) [µg/mL] | MIC E. faecium ATCC 49624 (E. faecium ATCC 49624) [µg/mL] | zone score, E. faecium ATCC 49624 (E. faceium (ATCC 49624)) | MIC E. faecalis CL 4877 (E. Faecalis CL 4877) [µg/mL] | MIC E. faecium CL 4931 (E. faecium CL 4931) [µg/mL] | zone score, E. faecalis CL 4877 (E. faecalis (CL 4877)) | zone score, S. epidermidis ATCC 12228 [1] | zone score, S. aureus ATCC 29213 (S. aureus (ATCC 29213))
CC(C)[C@H](N)C(=O)N[C@H]1C(=O)N[C@@H](CC(N)=O)C(=O)N[C@H]2C(=O)N[C@H]3C(=O)N[C@H](C(=O)N[C@@H](C(=O)O)c4cc(O)cc(O)c4-c4cc3ccc4O)[C@H](O)c3ccc(c(Cl)c3)Oc3cc2cc(c3O[C@@H]2O[C@H](CO)[C@@H](O)[C@H](O)[C@H]2O[C@@H]2C[C@@](C)(NCc3ccc(-c4ccc(Cl)cc4)cc3)[C@@H](O)[C@@H](C)O2)Oc2ccc(cc2Cl)[C@H]1O [Compound 20] | 0.78 | 0.25 | 0.39 | 0.25 | 2 |  |  |  |  | 
C[C@H](O)C(=O)N[C@H]1C(=O)N[C@@H](CC(N)=O)C(=O)N[C@H]2C(=O)N[C@H]3C(=O)N[C@H](C(=O)N[C@@H](C(=O)O)c4cc(O)cc(O)c4-c4cc3ccc4O)[C@H](O)c3ccc(c(Cl)c3)Oc3cc2cc(c3O[C@@H]2O[C@H](CO)[C@@H](O)[C@H](O)[C@H]2O[C@@H]2C[C@@](C)(NCc3ccc(-c4ccc(Cl)cc4)cc3)[C@@H](O)[C@@H](C)O2)Oc2ccc(cc2Cl)[C@H]1O [Compound 21] |  |  |  |  |  | 25 | 25 | 2 | 2 | 2
CC(N)C(=O)NCC(=O)NC1C(=O)NC(CC(N)=O)C(=O)NC2C(=O)NC3C(=O)NC(C(=O)NC(C(=O)O)c4cc(O)cc(O)c4-c4cc3ccc4O)C(O)c3ccc(c(Cl)c3)Oc3cc2cc(c3OC2OC(CO)C(O)C(O)C2OC2CC(C)(NCc3ccc(-c4ccc(Cl)cc4)cc3)C(O)C(C)O2)Oc2ccc(cc2Cl)C1O (stereo not drawn) [Compound 36] | 0.78 | 0.39 | 0.39 | 0.12 | 2 |  |  |  |  | 
CSCCC(N)C(=O)NC1C(=O)NC(CC(N)=O)C(=O)NC2C(=O)NC3C(=O)NC(C(=O)NC(C(=O)O)c4cc(O)cc(O)c4-c4cc3ccc4O)C(O)c3ccc(c(Cl)c3)Oc3cc2cc(c3OC2OC(CO)C(O)C(O)C2OC2CC(C)(NCc3ccc(-c4ccc(Cl)cc4)cc3)C(O)C(C)O2)Oc2ccc(cc2Cl)C1O (stereo not drawn) [Compound 41] | 0.78 | 0.39 | 0.39 | 0.25 | 2 |  |  | 2 |  | 
CCCCC(N)C(=O)NC1C(=O)NC(CC(N)=O)C(=O)NC2C(=O)NC3C(=O)NC(C(=O)NC(C(=O)O)c4cc(O)cc(O)c4-c4cc3ccc4O)C(O)c3ccc(c(Cl)c3)Oc3cc2cc(c3OC2OC(CO)C(O)C(O)C2OC2CC(C)(NCc3ccc(-c4ccc(Cl)cc4)cc3)C(O)C(C)O2)Oc2ccc(cc2Cl)C1O (stereo not drawn) [Compound 42] | 0.78 | 0.39 | 0.39 | 0.39 | 2 |  |  |  |  | 
CC(NCC(N)C(=O)NC1C(=O)NC(CC(N)=O)C(=O)NC2C(=O)NC3C(=O)NC(C(=O)NC(C(=O)O)c4cc(O)cc(O)c4-c4cc3ccc4O)C(O)c3ccc(c(Cl)c3)Oc3cc2cc(c3OC2OC(CO)C(O)C(O)C2OC2CC(C)(NCc3ccc(-c4ccc(Cl)cc4)cc3)C(O)C(C)O2)Oc2ccc(cc2Cl)C1O)=C1C(=O)CC(C)(C)CC1=O (stereo not drawn) [Compound 56] | 0.78 | 0.25 | 0.25 | 0.12 | 2 |  |  |  |  | 
CC1OC(OC2C(Oc3c4cc5cc3Oc3ccc(cc3Cl)C(O)C3NC(=O)C(NC(=O)C5NC(=O)C(CC(N)=O)NC(=O)C(NC(=O)C(N)CCCNC(=O)c5cnccn5)C(O)c5ccc(c(Cl)c5)O4)c4ccc(O)c(c4)-c4c(O)cc(O)cc4C(C(=O)O)NC3=O)OC(CO)C(O)C2O)CC(C)(NCc2ccc(-c3ccc(Cl)cc3)cc2)C1O (stereo not drawn) [Compound 83] | 0.78 | 0.39 | 0.78 | 0.25 | 2 |  | 25 |  |  | 2
CC1OC(OC2C(Oc3c4cc5cc3Oc3ccc(cc3Cl)C(O)C3NC(=O)C(NC(=O)C5NC(=O)C(CC(N)=O)NC(=O)C(NC(=O)C(N)CO)C(O)c5ccc(c(Cl)c5)O4)c4ccc(O)c(c4)-c4c(O)cc(O)cc4C(C(=O)O)NC3=O)OC(CO)C(O)C2O)CC(C)(NCc2ccc(-c3ccc(Cl)cc3)cc2)C1O (stereo not drawn) [Compound 88] |  | 0.78 |  | 0.78 | 2 | 25 |  | 2 | 2 | 2
CC1OC(OC2C(Oc3c4cc5cc3Oc3ccc(cc3Cl)C(O)C3NC(=O)C(NC(=O)C5NC(=O)C(CC(N)=O)NC(=O)C(NC(=O)C(N)CSC(C)(C)C)C(O)c5ccc(c(Cl)c5)O4)c4ccc(O)c(c4)-c4c(O)cc(O)cc4C(C(=O)O)NC3=O)OC(CO)C(O)C2O)CC(C)(NCc2ccc(-c3ccc(Cl)cc3)cc2)C1O (stereo not drawn) [Compound 333] |  |  |  |  |  | 25 | 25 |  |  | 
CC1OC(OC2C(Oc3c4cc5cc3Oc3ccc(cc3Cl)C(O)C3NC(=O)C(NC(=O)C5NC(=O)C(CC(N)=O)NC(=O)C(NC(=O)C(N)CSC(C)(C)C)C(O)c5ccc(c(Cl)c5)O4)c4ccc(O)c(c4)-c4c(O)cc(O)cc4C(C(=O)O)NC3=O)OC(CO)C(O)C2O)CC(C)(NCc2ccc(-c3ccc(Cl)cc3)cc2)C1O (stereo not drawn) [Compound 334] | 0.78 | 0.25 | 0.25 | 0.12 |  |  | 25 |  |  | 
CC1OC(OC2C(Oc3c4cc5cc3Oc3ccc(cc3Cl)C(O)C3NC(=O)C(NC(=O)C5NC(=O)C(CC(N)=O)NC(=O)C(NC(=O)C(N)COCc5ccccc5)C(O)c5ccc(c(Cl)c5)O4)c4ccc(O)c(c4)-c4c(O)cc(O)cc4C(C(=O)O)NC3=O)OC(CO)C(O)C2O)CC(C)(NCc2ccc(-c3ccc(Cl)cc3)cc2)C1O (stereo not drawn) [Compound 338] |  |  | 0.39 | 0.25 |  | 25 |  |  |  | 
CNC(C(=O)NC1C(=O)NC(CC(N)=O)C(=O)NC2C(=O)NC3C(=O)NC(C(=O)NC(C(=O)O)c4cc(O)cc(O)c4-c4cc3ccc4O)C(O)c3ccc(c(Cl)c3)Oc3cc2cc(c3OC2OC(CO)C(O)C(O)C2OC2CC(C)(NCc3ccc(-c4ccc(Cl)cc4)cc3)C(O)C(C)O2)Oc2ccc(cc2Cl)C1O)C(C)C (stereo not drawn) [Compound 340] |  | 0.39 | 0.39 | 0.39 |  | 25 |  |  |  | 
CCCC(N)C(=O)NC1C(=O)NC(CC(N)=O)C(=O)NC2C(=O)NC3C(=O)NC(C(=O)NC(C(=O)O)c4cc(O)cc(O)c4-c4cc3ccc4O)C(O)c3ccc(c(Cl)c3)Oc3cc2cc(c3OC2OC(CO)C(O)C(O)C2OC2CC(C)(NCc3ccc(-c4ccc(Cl)cc4)cc3)C(O)C(C)O2)Oc2ccc(cc2Cl)C1O (stereo not drawn) [Compound 341] |  | 0.78 | 0.78 | 0.78 |  | 25 |  |  |  | 
CNC(COC(C)(C)C)C(=O)NC1C(=O)NC(CC(N)=O)C(=O)NC2C(=O)NC3C(=O)NC(C(=O)NC(C(=O)O)c4cc(O)cc(O)c4-c4cc3ccc4O)C(O)c3ccc(c(Cl)c3)Oc3cc2cc(c3OC2OC(CO)C(O)C(O)C2OC2CC(C)(NCc3ccc(-c4ccc(Cl)cc4)cc3)C(O)C(C)O2)Oc2ccc(cc2Cl)C1O (stereo not drawn) [Compound 526] | 0.78 | 0.39 | 0.39 | 0.25 |  |  | 25 |  |  | 
CC(C)OCC(N)C(=O)NC1C(=O)NC(CC(N)=O)C(=O)NC2C(=O)NC3C(=O)NC(C(=O)NC(C(=O)O)c4cc(O)cc(O)c4-c4cc3ccc4O)C(O)c3ccc(c(Cl)c3)Oc3cc2cc(c3OC2OC(CO)C(O)C(O)C2OC2CC(C)(NCc3ccc(-c4ccc(Cl)cc4)cc3)C(O)C(C)O2)Oc2ccc(cc2Cl)C1O (stereo not drawn) [Compound 528] | 0.78 | 0.25 | 0.25 | 0.12 |  |  | 25 |  |  | 
CC(C)OCC(N)C(=O)NC1C(=O)NC(CC(N)=O)C(=O)NC2C(=O)NC3C(=O)NC(C(=O)NC(C(=O)O)c4cc(O)cc(O)c4-c4cc3ccc4O)C(O)c3ccc(c(Cl)c3)Oc3cc2cc(c3OC2OC(CO)C(O)C(O)C2OC2CC(C)(NCc3ccc(-c4ccc(Cl)cc4)cc3)C(O)C(C)O2)Oc2ccc(cc2Cl)C1O (stereo not drawn) [Compound 529] | 0.78 | 0.25 | 0.25 | 0.12 |  |  | 25 |  |  | 
CC1OC(OC2C(Oc3c4cc5cc3Oc3ccc(cc3Cl)C(O)C3NC(=O)C(NC(=O)C5NC(=O)C(CC(N)=O)NC(=O)C(NC(=O)C(N)Cc5c[nH]cn5)C(O)c5ccc(c(Cl)c5)O4)c4ccc(O)c(c4)-c4c(O)cc(O)cc4C(C(=O)O)NC3=O)OC(CO)C(O)C2O)CC(C)(NCc2ccc(-c3ccc(Cl)cc3)cc2)C1O (stereo not drawn) [Compound 554] |  |  | 0.78 | 0.39 |  | 25 |  |  |  | 
